# Experimental data: patent US6562841B1, “Methods and compositions for repelling arthropods” (The United States of America as represented by the …, priority 2000, dated 2003)
# Where two headings read alike, the source gives them in different places.
# What was measured:
# [1] = system: many species of blood-sucking arthropods; settings: field and laboratory studies, literature, cited from earlier work
# Aedes aegypti (Linnaeus) = experiment: Repellent bioassay on human skin, K & D modules, biting frequency of Aedes aegypti; format: in vivo; settings: for repellent activity, comparison in words: pair-wise comparison alpha=0.05
# Phlebotomus papatasi = experiment: Repellent bioassay on human skin, K & D modules, Phlebotomus papatasi; format: in vivo
# Aedes albopictus = experiment: Repellent bioassay on human skin, K & D modules, Aedes albopictus; format: in vivo
# Anopheles stephensi = experiment: Repellent bioassay on human skin, K & D modules, Anopheles stephensi; format: in vivo
structure (smiles),measurement,setting,value
"CC1CCCCN1C(=O)C1CC=CCC1 (racemic) [compound 220, 1-(3-cyclohexen-1-ylcarbonyl)-2-methylpiperidine, reference compound]",effectiveness in reducing bites compared with deet,[1],more or as effective as the commonly used arthropod repellent deet
same,effectiveness in reducing bites compared with deet,[1]; listed as 220 racemate,more effective than deet
same,proportion biting value,"Aedes aegypti (Linnaeus); Ae. aegypti females on treated human skin, 4.95 μg/cm^2 skin, 2 min exposure",0.45
same,"repellent activity, comparison in words","Aedes aegypti (Linnaeus); Ae. aegypti, 4.95 μg/cm^2 skin",not significantly different from one another
"C[C@H]1CCCCN1C(=O)[C@@H]1CC=CCC1 (single isomer, unassigned) [(1S,2′S)]","repellent effectiveness, comparison in words",Phlebotomus papatasi,most effective in repelling bites
same,times more effective in suppressing bites than the racemate,Aedes albopictus,4 times
same,"repellent effectiveness, comparison in words",Anopheles stephensi,most effective in repelling bites
same,times more repellent than the other stereoisomers,"Aedes aegypti (Linnaeus); Ae. aegypti, 4.95 μg/cm^2 skin",2.8-3.1 times
same,times more effective in suppressing bites than the racemate,"Aedes aegypti (Linnaeus); Ae. aegypti, equal dose",2.5 times
"CC1CCCCN1C(=O)C1CC=CCC1 [(1R,2′R), 1-(3-cyclohexen-1-ylcarbonyl)-2-methylpiperidine]","repellent activity, comparison in words","Aedes aegypti (Linnaeus); Ae. aegypti, 4.95 μg/cm^2 skin, listed as (1R,2′R)-220",significantly less effective as a repellent
"CC1CCCCN1C(=O)C1CC=CCC1 [(1R,2′S), 1-(3-cyclohexen-1-ylcarbonyl)-2-methylpiperidine]","repellent effectiveness, comparison in words",Aedes albopictus,"more effective than the (1S,2′R) and (1R,2′R) stereoisomers"
same,times more repellent than the other stereoisomers,"Aedes aegypti (Linnaeus); Ae. aegypti, 4.95 μg/cm^2 skin",1.6-1.8 times
"CC1CCCCN1C(=O)C1CC=CCC1 [(1S,2′R), 1-(3-cyclohexen-1-ylcarbonyl)-2-methylpiperidine]","repellent activity, comparison in words","Aedes aegypti (Linnaeus); Ae. aegypti, 4.95 μg/cm^2 skin",not significantly different from one another
